From patent EP0702683B1, “06-SUBSTITUTED GUANINE DERIVATIVES, A PROCESS FOR THEIR PREPARATION AND THEIR USE IN TREATING TUMOUR CELLS” (Cancer Research Technology Limited, priority 1993, dated 1994)
Where two headings read alike, the source gives them in different places.

Columns and labels:
[1] = biological target: T1, ATase (Homo sapiens, UniProt P16455); assay: In vitro ATase inactivation assay with purified recombinant human ATase; format: biochemical; parameters: made in house; conditions: for effectiveness in the in vitro ATase inactivation assay compared with BeG: Figure 1, in words
T1 sequence (P16455 1-207): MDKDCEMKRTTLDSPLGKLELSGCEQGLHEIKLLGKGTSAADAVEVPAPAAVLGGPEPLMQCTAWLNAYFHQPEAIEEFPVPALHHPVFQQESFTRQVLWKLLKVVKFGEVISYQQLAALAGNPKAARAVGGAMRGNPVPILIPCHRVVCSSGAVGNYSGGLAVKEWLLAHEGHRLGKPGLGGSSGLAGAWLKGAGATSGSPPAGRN
Description: The cDNA cloning and overexpression of the human ATase has been reported previously^23. Purification of the recombinant proteins was achieved either by affinity chromatography through a DNA-cellulose column as described by Wilkinson et al.,^25, 26, or by DEAE-cellulose ion-exchange chromatography. For the latter, the ATase protein was partially purified by ammonium sulphate precipitation (30 - 60%) and dialysed against 10 mM Tris-HCl pH 7.5, 1 mM DTT, 2 mM EDTA, 10% glycerol, before loading on a DEAF-cellulose column. The ATase was then eluted with a 0-0.1 M NaCl gradient.
Compounds to be tested were dissolved in DMSO to a final concentration of 10 mM and diluted just before use in buffer I containing 1 mg/ml bovine serum albumin (IBSA). Recombinant ATase was diluted in IBSA and titrated in order that the reaction be conducted under ATase, and not substrate, limiting conditions. In each assay, fixed amounts of ATase (60-75 fmol) were incubated with varying amounts of 0^6-benzylguanine, or test compound in a total volume of 200 µl of IBSA containing 10 µg of calf thymus DNA at 37°C for 1 hour. The [^3H]-methylated-DNA substrate (100 µl containing 6.7 µg of DNA and 100 fmol of 0^6-methylguanine) was added and incubation continued at 37° for 1 hour, until the reaction was completed. Following acid hydrolysis of the DNA as previously described^21 the [^3H]-methylated protein was recovered and quantitated by liquid scintillation counting. Samples were typically assayed in duplicate and experiments repeated several times. I50 is the concentration of inactivator required to produce a 50% reduction in ATase activity.

[2] = system: Raji cells; assay: Sensitization of Raji cells to BCNU (XTT assay); format: cell-based, human; conditions: for Raji sensitization (D90.^C/D90.^I) 1.0µM / Raji sensitization (D90.^C/D90.^I) O.1µM: BCNU, 2 hour pretreatment; for Raji sensitization (D90.^C/D90.^I) 1.0µM: inactivator 1.0µM; for Raji sensitization (D90.^C/D90.^I) O.1µM: inactivator O.1µM; for sensitizing Raji cells to the growth inhibitory effects of BCNU, compared with BeG: Figure 2, in words
Description: Following a 2 hour incubation at 37°C, medium containing either increasing doses of BCNU, temozolomide or equivalent vehicle was added and the cells allowed to grow for 6 days. At this time XTT solution was added and the cells incubated for a further 4 hours at 37°C. The resulting red/orange formazan reaction product was quantified by measuring absorption at 450nm on a microtitre platereader.

[3] = system: XP cells; assay: Growth inhibition of Xeroderma pigmentosum cells by inactivator alone; format: cell-based, human; conditions: inactivator alone, Figure 6, compared with V79 cells, in words
Description: (§1) In order to assess the effects on cell growth alone, Xeroderma pigmentosum cells and Chinese Hamster V79 cells were exposed to increasing concentrations (up to 600µM) of selected inactivators for 2h at 37°. In some cases, the inactivators were allowed to undergo hydrolysis at 37°C for 20 hours and then added to […] in order to assess the extent to which the decomposition products of the agents might inhibit cell growth. After 6 days the extent of cell growth was determined as described above.

[4] = as above; format: cell-based, human; conditions: human, xeroderma pigmentosum cells; Figs 5 & 6; read-out: toxic concentrations in XP cells relative to those at which sensitization to BCNU was observed
Description: as §1

[5] = system: A375M cells; assay: Sensitization of A375M cells to BCNU (MTT assay); format: cell-based, human; conditions: for A375M sensitization (D50.^C/D50.^I) 0.5uM: inactivator 0.5uM 2 hours before; for A375M sensitization (D50.^C/D50.^I) 5.0uM: inactivator 5.0uM 2 hours before
Description: Sensitization of A375M cells to the cytotoxic effects of BCNU was analysed by MTT assay ^24 differing from the XTT assay described above as follows. […] After 6 days MTT solution (4mg/ml) was added and cells incubated for 3 hours at 37°C. Medium was aspirated and the resulting purple formazan crystals were solubilised in DMSO (120μl) and cell viability was quantified by measuring absorption at 540nm using a microtitre plate reader.

[6] = biological target: T2, ATase (Rattus norvegicus, UniProt P24528); assay: Inactivation of ATase activity in Yoshida cells; format: cell-based
T2 construct: endogenous in cells; host or cells: Yoshida
T2 sequence (P24528 1-209): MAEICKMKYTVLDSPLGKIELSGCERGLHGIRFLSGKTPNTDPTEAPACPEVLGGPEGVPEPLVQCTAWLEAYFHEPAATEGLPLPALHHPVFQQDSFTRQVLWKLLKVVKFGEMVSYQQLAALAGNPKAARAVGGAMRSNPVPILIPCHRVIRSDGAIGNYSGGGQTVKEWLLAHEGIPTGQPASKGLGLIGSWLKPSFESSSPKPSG
Description: Mammalian cells were cultured under standard conditions. For example, Raji (a human lymphoblastoid cell line from a Burkitt's lymphoma) cells were grown in suspension culture in RPMI medium supplemented with 10% horse serum. A375M cells are human melanoma cells from which the xenografts described below were established following subcutaneous injection into nude mice: WiDr cells are a human colon carcinoma cell line: Hamster+120 cells are a mitozolomide-selected subline of a Chinese hamster lung fibroblast V79 cell line called RJKO: Yoshida cells are a rat carcinosarcoma cell line and YRbus is a busulphan resistant subline thereof: XP cells are an SV40-transformed fibroblast cell line originally from the skin of a Xeroderma pigmentosum patient, pHMGhAT2b cells are a clone of these cells that have been transfected with a mammalian cell expression vector containing the human ATase cDNA and pHMGla cells are a clone that have been transfected with the expression vector only (i.e. one not containing the human ATase cDNA). Cell pellets were resuspended in cold (4°C) buffer I containing 2 µg/ml leupeptin and sonicated for 10 seconds at 12 µ peak to peak distance. After cooling in ice, the cells were sonicated for a further 10 seconds at 18 µ. Immediately after sonication, 0.01 volumes of 8.7 mg/ml phenylmethanesulphonylfluoride in ethanol was added and the sonicates centrifuged at 15 000 g for 10 minutes at 4°C to pellet cell debris. The supernatant was kept for determination of ATase activity (see below).
Cells were diluted to 10^6/ml in culture medium containing either the appropriate concentration of inactivator or an equivalent volume of vehicle (DMSO). Following incubation at 37°C for 2 hours the cells were harvested by centrifugation, washed twice with PBS and the resulting cell pellets (between 1-2 x 10^7 per pellet) stored at -20°C. ATase activity was determined as described above, in duplicate sonicated cell extracts and expressed as the percentage activity remaining based on that present in the untreated controls (for example 350-450 fm/mg in Raji cells).

For Nc1nc(OCc2ccco2)c2nc[nH]c2n1 [B.4203, O^6-furfurylguanine], the IC50 [1] was 0.08 µM, the “effectiveness in the in vitro ATase inactivation assay compared with BeG” value [1] was “not as effective as BeG” and the “Raji sensitization (D90.^C/D90.^I) 1.0µM” value [2] was 5.7. The “Raji sensitization (D90.^C/D90.^I) O.1µM” value [2] was 2.6, the “susceptibility of XP cells to the growth inhibitory effects of the inactivator” value [3] was “as susceptible” and the selectivity ratio [4] was ≥ 100. For the same molecule, the “A375M sensitization (D50.^C/D50.^I) 0.5uM” value [5] was 2.0, the “A375M sensitization (D50.^C/D50.^I) 5.0uM” value [5] was 2.5 and the IC50 ([6]; Rat Yoshida cells, 2 hours at 37°C, read-out: Inactivation of ATase in Mammalian Cells I50(µM) Rat Yoshida) was 0.06 µM.
With Nc1nc(OCc2cccs2)c2nc[nH]c2n1 [B.4205, O^6-thenylguanine] the IC50 [1] was 0.018 µM, the “effectiveness in the in vitro ATase inactivation assay compared with BeG” value [1] was “considerably better” and the “sensitizing Raji cells to the growth inhibitory effects of BCNU, compared with BeG” value ([2]; 0.1uM inactivator) was “more effective than BeG”. For the same molecule, the “sensitizing Raji cells to the growth inhibitory effects of BCNU, compared with BeG” value ([2]; 1.0uM inactivator) was “equally effective”, the “Raji sensitization (D90.^C/D90.^I) 1.0µM” value [2] was 8.0 and the “Raji sensitization (D90.^C/D90.^I) O.1µM” value [2] was 8.4. The “susceptibility of XP cells to the growth inhibitory effects of the inactivator” value [3] was “more sensitive than V79 cells”, the selectivity ratio [4] was ≥ 100 and the “A375M sensitization (D50.^C/D50.^I) 0.5uM” value [5] was 2.8. The “A375M sensitization (D50.^C/D50.^I) 1.0uM” value ([5]; inactivator 1.0uM 2 hours before) was 2.3, the “A375M sensitization (D50.^C/D50.^I) 5.0uM” value [5] was 3.5 and the IC50 [6] was 0.02 µM.
